From patent US20220313698A1, “MODULATORS OF CYSTIC FIBROSIS TRANSMEMBRANE CONDUCTANCE REGULATOR” (Vertex Pharmaceuticals Incorporated, priority 2019, published 2022) come the findings set out here.

The assay has as its target CFTR-mediated chloride transport (Homo sapiens, UniProt P13569). The experiment in a line: Corrector Assay A - membrane potential dye assay (enteroid cells). The note with it: for Corrector Assay A % activity: % of chloride transport of triple combination control (1 μM (14S)-dispiro macrocycle + 3 μM tezacaftor + 300 nM ivacaftor); for EC50: read-out: Corrector Assay A EC50, human intestinal enteroid cells, 18-24 h incubation, acute 10 μM forskolin + 300 nM ivacaftor.

A value given as a limit tells only on which side of the number the result lay.

In the case of `CC(C)(C)c1ccnc([C@H]2CC[C@@H]3CN(c4nc(-c5cccc(OCCC6CC6)n5)ccc4C(=O)NS(=O)(=O)c4cccc(n4)N2)C(C)(C)C3)c1` [Compound 301, (14S,17R)-17-(4-tert-butylpyridin-2-yl)-8-[6-(2-cyclopropylethoxy)pyridin-2-yl]-12,12-dimethyl-2λ^6-thia-3,9,11,18,23-pentaazatetracyclo[17.3.1.111,14.05,10]tetracosa-1(22),5,7,9,19(23),20-hexaene-2,2,4-trione], the “Corrector Assay A % activity” value is listed as “+++ (+++ is >60%)” and the EC50 – broadly, the concentration needed to bring the measured effect to its halfway point – was less than 1000 nM.

On to `CC(C)(C)c1ccnc([C@H]2CC[C@@H]3CN(c4nc(-c5cccc(OCC6CCC6)n5)ccc4C(=O)NS(=O)(=O)c4cccc(n4)N2)C(C)(C)C3)c1` [Compound 302, (14S,17R)-17-(4-tert-butylpyridin-2-yl)-8-[6-(cyclobutylmethoxy)pyridin-2-yl]-12,12-dimethyl-2λ^6-thia-3,9,11,18,23-pentaazatetracyclo[17.3.1.111,14.05,10]tetracosa-1(22),5,7,9,19(23),20-hexaene-2,2,4-trione], for which the “Corrector Assay A % activity” value is listed as “+++ (+++ is >60%)” and the EC50 was less than 1000 nM.

For `CC(C)(C)CCOc1cccc(-c2ccc3c(n2)N2C[C@@H](CC[C@H](c4cc(C(C)(C)C)ccn4)Nc4cccc(n4)S(=O)(=O)NC3=O)CC2(C)C)n1` [Compound 303, (14S,17R)-17-(4-tert-butylpyridin-2-yl)-8-[6-(3,3-dimethylbutoxy)pyridin-2-yl]-12,12-dimethyl-2λ^6-thia-3,9,11,18,23-pentaazatetracyclo[17.3.1.111,14.05,10]tetracosa-1(22),5,7,9,19(23),20-hexaene-2,2,4-trione], the “Corrector Assay A % activity” value is “+++ (+++ is >60%)” and the EC50 was less than 1000 nM.

`CC(C)(C)CCOc1cccc(-c2ccc3c(n2)N2C[C@@H](CC[C@H](c4cccc(C(F)(F)F)n4)Nc4cccc(n4)S(=O)(=O)NC3=O)CC2(C)C)n1` [Compound 304, (14S,17R)-8-[6-(3,3-dimethylbutoxy)pyridin-2-yl]-12,12-dimethyl-17-[6-(trifluoromethyl)pyridin-2-yl]-2λ^6-thia-3,9,11,18,23-pentaazatetracyclo[17.3.1.111,14.05,10]tetracosa-1(22),5,7,9,19(23),20-hexaene-2,2,4-trione]: the “Corrector Assay A % activity” value was “++ (++ is 30-60%)” and the EC50 was less than 1000 nM.

Take `CC(C)(C)CCOc1ccn(-c2ccc3c(n2)N2C[C@@H](CC[C@H](c4cc(C(C)(C)C)ccn4)Nc4cccc(n4)S(=O)(=O)NC3=O)CC2(C)C)n1` [Compound 305, (14S,17R)-17-(4-tert-butylpyridin-2-yl)-8-[3-(3,3-dimethylbutoxy)-1H-pyrazol-1-yl]-12,12-dimethyl-2λ^6-thia-3,9,11,18,23-pentaazatetracyclo[17.3.1.111,14.05,10]tetracosa-1(22),5,7,9,19(23),20-hexaene-2,2,4-trione]: the “Corrector Assay A % activity” value is reported as “+++ (+++ is >60%)” and the EC50 was less than 1000 nM.

For `CC(C)(C)CCOc1ccn(-c2ccc3c(n2)N2C[C@@H](CC[C@H](c4cccc(C(F)(F)F)n4)Nc4cccc(n4)S(=O)(=O)NC3=O)CC2(C)C)n1` [Compound 306, (14S,17R)-8-[3-(3,3-dimethylbutoxy)-1H-pyrazol-1-yl]-12,12-dimethyl-17-[6-(trifluoromethyl)pyridin-2-yl]-2λ^6-thia-3,9,11,18,23-pentaazatetracyclo[17.3.1.111,14.05,10]tetracosa-1(22),5,7,9,19(23),20-hexaene-2,2,4-trione], the “Corrector Assay A % activity” value is on record as “++ (++ is 30-60%)” and the EC50 was less than 1000 nM.
